# From patent publication US20220395472A1 (Dermavant Sciences GmbH, priority 2021, published 2022)
# Values joined by “and” are separate entries in the source; they are usually repeats but may differ in a detail not shown here. Identical values can stand only once. Like-named read-outs stand apart in the source and are kept apart here.
# Experiments:
# [1] = tested on: adults with plaque psoriasis; assay: Long-term extension study (PSOARING 3): % BSA affected; assay type: in vivo, human
# Experimental: The % BSA affected is an estimate of the percentage of total involved skin with psoriasis. For the purpose of clinical estimation, the total palmar surface of the subject's palm and digits was assumed to be approximately equivalent to 1% BSA. The % BSA affected by psoriasis was evaluated (from 0% to 100%). Details on calculation of approximate % BSA involvement in each subject (total and individual) can be found in Appendix 2 of the protocol. Percent BSA is a static assessment made without reference to previous scores.
# At Screening, Baseline, and for all efficacy assessments, lesions on the subject's scalp, palms, fingernails, toenails, and soles were not included in the calculation of % BSA affected as these areas were excluded from the efficacy analyses.
# [2] = tested on: adults with plaque psoriasis; assay: Long-term extension study (PSOARING 3): adverse events; assay type: in vivo, human
# Description: Endpoints: Incidence, frequency, and nature of AEs, adverse events of special interest (AESIs), and serious adverse events (SAEs), Change over time in clinical laboratory tests and frequency of clinically significant abnormal test results, Change over time in vital signs and frequency of clinically significant abnormal results, Local Tolerability Scale (LTS) scores by severity summarized by visit.
# Safety assessments included AEs, AESIs, SAEs, local (application site) tolerability, clinical laboratory tests, vital signs, physical examinations, and Investigator assessed LTS. Efficacy assessments included a 5 point static PGA (0 [clear], 1 [almost clear], 2 [mild], 3 [moderate], 4 [severe]), % BSA affected, the PASI, and subject reported DLQI.
# [3] = tested on: adults with plaque psoriasis; assay: Long-term extension study (PSOARING 3): patient-reported and investigator-assessed Local Tolerability Scale; assay type: in vivo, human; conditions: all anatomic regions incl. sensitive areas; 40 weeks
# Experimental: Tolerability is defined as the local tolerability using a patient-reported 5-point scale for burning/stinging and itching, and an investigator-assessed 5-point scale for dryness, erythema, and peeling.
# Tolerability was assessed subjectively via subject and objectively via Investigator throughout the 40 weeks of the study. The patient-reported local tolerability scale utilized for self-reported tolerability assessment is shown in Table 20, while the investigator-assessed local tolerability scale utilized is shown in Table 21.
# [4] = Maximal use study with serial PK sampling: plasma concentrations; assay type: in vivo, human; conditions: between Days 1 and 29
# Description: (FIG. 2). This decline is further supported by serial PK data collected from previous clinical studies over 28 days of dosing and over 21 days of dosing.
# [5] = In vitro studies in human skin microsomes: metabolic turnover; assay type: in vitro ADME
# Description: The reason for the decrease in plasma concentrations over time is unknown. Without wishing to be bound by theory, as the skin heals, there may be less penetration of the drug through the stratum corneum and into the systemic circulation since the barrier is restored.
# [6] = tested on: mild to severe plaque psoriasis; assay: Treat-to-target pooled analysis of the PSOARING trials; assay type: in vivo, human
# Description: In addition to a % BSA of ≤1.0% and PASI75, pooled analyses explored more aggressive targets, including the proportion of patients with % BSA of ≤0.5%, or an absolute PASI score of ≤1, ≤2 or ≤3. […] Safety analyses are based on all patients who received tapinarof in the PSOARING trials.
# plaque psoriasis = assay: 12-week phase 2b trial in psoriasis; assay type: in vivo, human; conditions: cream 1%; 12-week treatment
# Description: As mentioned, tapinarof is a novel therapeutic aryl hydrocarbon receptor modulating agent (TAMA) in clinical development for the topical treatment of psoriasis and atopic dermatitis. […] AhR modulates T cell responses both through intrinsic control of T cell subset differentiation and via controlling the function of antigen presenting cells. In addition, AhR signaling promotes the conversion of Th17 cells to type 1 regulatory T cells. Aberrant immune responses underpin the pathogenesis of both PsO and AD, and the wide expression of AhR in immune cells makes it an attractive target given the essential role of AhR in regulating inflammatory responses and skin homeostasis. […] These clinical data support the role of AhR in skin immune homeostasis. Given the multitude of AhR-dependent immunoregulatory mechanisms, AhR is an attractive target for novel immunotherapies with the potential to extend therapeutic efficacy following treatment discontinuation; this may provide a unique clinical benefit to patients.
# Treatment-emergent adverse events (TEAEs) were reported with a higher frequency in the tapinarof groups than in the vehicle groups. […]
# [7] = tested on: adult and adolescent subjects with AD; conditions: cited from earlier work
# [8] = final analysis, Tapinarof→Tapinarof
# [9] = final analysis, Vehicle→Tapinarof
smiles,measurement,setting,value
"CC(C)c1c(O)cc(/C=C/c2ccccc2)cc1O [Tapinarof, 3,5-Dihydroxy-4-isopropyl-trans-stilbene]",mean % BSA affected,"[1]; Week 16, LOCF, Tapinarof (Pivotal) group",2.54%
same,mean % BSA affected,"[1]; Week 16, LOCF, Vehicle (Pivotal) group",3.36%
same,mean % BSA affected,"[1]; Week 16, OC, Tapinarof (Pivotal) group",1.97%
same,mean % BSA affected,"[1]; Week 16, OC, Vehicle (Pivotal) group",2.89%
same,mean % BSA affected,"[1]; Week 16 LOCF, Overall",2.82%
same,mean % BSA affected,"[1]; Week 16 OC, Overall",2.28%
same,mean % BSA affected,"[1]; Week 40, LOCF, Tapinarof (Pivotal) group",2.44%
same,mean % BSA affected,"[1]; Week 40, LOCF, Vehicle (Pivotal) group",2.99%
same,mean % BSA affected,"[1]; Week 40, OC, Tapinarof (Pivotal) group",1.75%
same,mean % BSA affected,"[1]; Week 40, OC, Vehicle (Pivotal) group",2.07%
same,mean % BSA affected,"[1]; Week 40 LOCF, Overall",2.63%
same,mean % BSA affected,"[1]; Week 40 OC, Overall",1.85%
same,TEAE incidence: contact dermatitis,[2]; final analysis,5.5%
same,TEAE incidence: folliculitis,[2]; final analysis,22.7%
same,TEAE incidence: upper respiratory tract infection,[2]; final analysis,4.7%
same,discontinuation rate due to contact dermatitis,[2]; final analysis,1.4%
same,discontinuation rate due to folliculitis,[2]; final analysis,1.2%
same,Study discontinuation due to AESI: Dermatitis contact,"[2]; final analysis, Overall",11 (1.4) n (%)
same,Study discontinuation due to AESI: Folliculitis,"[2]; final analysis, Overall",9 (1.2) n (%)
same,Study discontinuation due to AESI: Headache,"[2]; final analysis, Overall",0 n (%)
same,Study discontinuation due to TEAEs,"[2]; final analysis, Overall",41 (5.4) n (%)
same,Treatment-emergent AESI: Dermatitis contact,"[2]; final analysis, Overall",45 (5.9) n (%)
same,Treatment-emergent AESI: Folliculitis,"[2]; final analysis, Overall",183 (24.0) n (%)
same,Treatment-emergent AESI: Headache,"[2]; final analysis, Overall",15 (2.0) n (%)
same,Study discontinuation due to AESI: Dermatitis contact,[2]; [8],7 (1.4) n (%)
same,Study discontinuation due to AESI: Folliculitis,[2]; [8],6 (1.2) n (%)
same,Study discontinuation due to AESI: Headache,[2]; [8],0 n (%)
same,Study discontinuation due to TEAEs,[2]; [8],26 (5.1) n (%)
same,Treatment-emergent AESI: Dermatitis contact,[2]; [8],24 (4.7) n (%)
same,Treatment-emergent AESI: Folliculitis,[2]; [8],124 (24.4) n (%)
same,Treatment-emergent AESI: Headache,[2]; [8],10 (2.0) n (%)
same,Study discontinuation due to AESI: Dermatitis contact,[2]; [9],4 (1.6) n (%)
same,Study discontinuation due to AESI: Folliculitis,[2]; [9],3 (1.2) n (%)
same,Study discontinuation due to AESI: Headache,[2]; [9],0 n (%)
same,Study discontinuation due to TEAEs,[2]; [9],15 (5.9) n (%)
same,Treatment-emergent AESI: Dermatitis contact,[2]; [9],21 (8.2) n (%)
same,Treatment-emergent AESI: Folliculitis,[2]; [9],59 (23.1) n (%)
same,Treatment-emergent AESI: Headache,[2]; [9],5 (2.0) n (%)
same,study discontinuation rate due to contact dermatitis,[2]; interim,1.4%
same,study discontinuation rate due to folliculitis,[2]; interim,1.2%
same,Premature discontinuation due to AEs,"[2]; interim, Overall",5.8%
same,Premature discontinuation due to AEs,"[2]; interim, Tapinarof (Pivotal) group",5.7%
same,Premature discontinuation due to AEs,"[2]; interim, Vehicle (Pivotal) group",5.9%
same,local tolerability (patient and investigator assessments),[3],well-tolerated
same,decline in plasma concentrations,[4],10 fold
same,metabolic turnover,[5],no metabolic turnover
same,KM estimated median time to target % BSA≤0.5%,"[6]; 915 patients, baseline PGA≥2",199 days
same,mean time to target PASI≤3,"[6]; 915 patients, baseline PGA≥2",58 days
same,median time to target % BSA≤1.0%,"[6]; 915 patients, baseline PGA≥2",120 days
same,median time to target PASI≤1,"[6]; 915 patients, baseline PGA≥2",185 days
same,median time to target PASI≤2,"[6]; 915 patients, baseline PGA≥2",87 days
same,patients who achieved % BSA≤0.5%,"[6]; 915 patients, baseline PGA≥2",49.7%
same,patients who achieved % BSA≤1.0%,"[6]; 915 patients, baseline PGA≥2",61.3% and 61%
same,patients who achieved PASI≤1,"[6]; 915 patients, baseline PGA≥2",50.3%
same,patients who achieved PASI≤2,"[6]; 915 patients, baseline PGA≥2",66.9% and 67%
same,patients who achieved PASI≤3,"[6]; 915 patients, baseline PGA≥2",75.0%
same,patients who achieved ≤1% BSA affected,[6]; within ˜3 months,40%
same,time efficacy was maintained after treatment cessation,plaque psoriasis,4 weeks
same,reported TEAEs,[7]; 1% BID arm,70%
same,proportion subjects with ≥75% improvement in EASI,[7]; 1% BID,60%
same,Treatment success for IGA (clear or almost clear with minimum 2-point improvement),"[7]; 1% QD arm, Week 8",49%
same,proportion subjects with ≥75% improvement in EASI,"[7]; 1% QD arm, Week 8",57%
same,Treatment success for IGA (clear or almost clear with minimum 2-point improvement),"[7]; 1% QD arm, Week 12",46%
same,proportion subjects with ≥75% improvement in EASI,"[7]; 1% QD arm, Week 12",57%
same,reported TEAEs,[7]; 1% QD arm,54%
same,proportion subjects with ≥75% improvement in EASI,[7]; 1% QD,51%
